Our source for the EC50 values is patent publication US10774053B2, “HIV protease inhibitors” (Gilead Sciences, Inc., priority 2017, dated 2020).

The test system of this test is HIV-1 (IIIB) in MT-4 cells. The test is described as follows: microbe, parasite or virus in culture. Format: cell-based. Conditions: Human immunodeficiency virus 1, IIIB, MT4, MT-4 cells, HIV-1; read-out: MT4 EC50. As for the experimental part: Compounds were serially diluted (1:3) in DMSO on 384-well polypropylene plates and further diluted 200-fold into complete RPMI media (10% FBS, 1% P/S) using the Biotek Micro Flow and Agilent ECHO acoustic dispenser. Each plate contained up to 8 test compounds, with negative (No Drug Control) and 5 uM AZT positive controls. MT-4 cells were pre-infected with 10 uL of either RPMI (mock-infected) or a fresh 1:250 dilution of an HIV-1 (IIIB) concentrated virus stock. Infected and uninfected MT-4 cells were further diluted in complete RPMI media and added to each plate using a Micro Flow dispenser. After 5 days incubation in a humidified and temperature controlled incubator (37° C.), Cell Titer Glo (Promega) was added to the assay plates to quantify the amount of luciferase.

Consider `CC(C)(C)C[C@]1(c2ccc(-c3cnn(C(F)F)c3)cc2)NC(=N)N([C@H](COC(=O)NC2CC2)c2ccc(Cl)c(-c3ncnn3C3CC3)c2)C1=O` [Compound 38], for which the EC50 was found to be 0.00983 µM.

`[H]/N=C1\N[C@](CC(C)(C)C)(c2ccc(-c3cnn(C(F)F)c3)cc2)C(=O)N1[C@H](COC(=O)NC1CC1)c1ccc(Cl)c(-c2nncs2)c1` [Compound 39]: the EC50 is 0.0298 µM.

Regarding `Cc1nnc(-c2cc([C@@H](COC(=O)NC3CC3)N3C(=N)N[C@](CC(C)(C)C)(c4ccc(-c5cnn(C(F)F)c5)cc4)C3=O)ccc2Cl)[nH]1` [Compound 40], the EC50 was found to be 0.0841 µM.

For `Cn1cc(-c2cc([C@@H](COC(=O)NC3CC3)N3C(=N)N[C@](CC(C)(C)C)(c4ccc(-c5cnn(C(F)F)c5)cc4)C3=O)ccc2Cl)nn1` [Compound 41], the 50% effective concentration (EC50) was 0.0181 µM.

Consider `CC(C)(C)C[C@]1(c2ccc(-c3cnn(C(F)F)c3)cc2)NC(=N)N([C@H](CO)c2ccc(Cl)c(-c3ncn[nH]3)c2)C1=O` [Compound 42], for which the half-maximal effective concentration (EC50) was determined as 0.103 µM.

Consider `CC(C)(C)C[C@]1(c2ccc(-c3cnn(C(F)F)c3)cc2)NC(=N)N([C@H](COC(=O)NC2(C)CC2)c2ccc(Cl)c(-c3ncnn3C3CC3)c2)C1=O` [Compound 43], for which the EC50 came to 0.00818 µM.

For the molecule `[H]/N=C1\N[C@](CC(C)(C)C)(c2ccc(-c3cnn(C(F)F)c3)cc2)C(=O)N1[C@H](COC(=O)NC1CC1)c1ccc(Cl)c(-c2nnc(C3CC3)s2)c1` [Compound 44], the EC50 was 0.246 µM.

For `CC(C)(C)C[C@]1(c2ccc(-c3cnn(C(F)F)c3)cc2)NC(=N)N([C@H](COC(=O)NC(C)(C)C(F)(F)F)c2ccc(Cl)c(-c3ncn[nH]3)c2)C1=O` [Compound 45], the EC50 stood at 0.0317 µM.

Take `CC(C)(C)C[C@]1(c2ccc(-c3cnn(C(F)F)c3)cc2)NC(=N)N([C@H](CO)c2ccc(Cl)c(-c3ncnn3C3CC3)c2)C1=O` [Compound 46]: the EC50 turned out to be 0.0376 µM.

Regarding `CC(C)(C)C[C@]1(c2ccc(-c3cnn(C(F)F)c3)cc2)NC(=N)N([C@H](COC(=O)NC2(C)CC2)c2ccc(Cl)c(-c3ccccn3)c2)C1=O` [Compound 47], the 50% effective concentration (EC50) was 0.0609 µM.

Regarding `[H]/N=C1\N[C@](CC(C)(C)C)(c2ccc(-c3cnn(C(F)F)c3)cc2)C(=O)N1[C@H](COC(=O)NC1CC1)c1ccc(Cl)c(-c2ncns2)c1` [Compound 48], the EC50 was 0.08 µM.

Turning to `[H]/N=C1\N[C@](CC(C)(C)C)(c2ccc(-c3cnn(C4CC4)c3)cc2)C(=O)N1[C@H](COC(=O)N1CC(F)(F)C1)c1ccc(Cl)c(-c2ccccn2)c1` [Compound 49], the EC50 was 0.0681 µM.

With `CC(C)(C)C[C@]1(c2ccc(-c3ccccn3)cc2)NC(=N)N([C@H](COC(=O)NC2(C(F)(F)F)CC2)c2ccc(Cl)c(-c3ncn[nH]3)c2)C1=O` [Compound 60], the EC50 is 0.0285 µM.

As for `CC(C)(C)C[C@]1(c2ccc(-c3cnn(C(F)F)c3)cc2)NC(=N)N([C@H](COC(=O)N2CC(F)(F)C2)c2ccc(Cl)c(-c3ncn[nH]3)c2)C1=O` [Compound 67], the EC50 was 0.0208 µM.

For `CC(C)(C)C[C@]1(c2ccc(-c3cnn(C(F)F)c3)cc2)NC(=N)N([C@H](COC(=O)NC(C)(C)C)c2ccc(Cl)c(-c3ncn[nH]3)c2)C1=O` [Compound 68], the EC50 turned out to be 0.0216 µM.

`CC(C)(C)C[C@]1(c2ccc(-c3cnn(C(F)F)c3)cc2)NC(=N)N([C@H](COC(=O)NC(C)(C)C(F)F)c2ccc(Cl)c(-c3ncn(C(F)F)n3)c2)C1=O` [Compound 69]: the EC50 came out at 0.0326 µM.

With `CC(C)(C)C[C@]1(c2ccc(-c3cnn(C(F)F)c3)cc2)NC(=N)N([C@H](COC(=O)NC2(C)CC2)c2ccc(Cl)c(-c3ncn(C(F)F)n3)c2)C1=O` [Compound 70], the EC50 is 0.0294 µM.

For `CC(C)(C)C[C@]1(c2ccc(-c3cnn(C(F)F)c3)cc2)NC(=N)N([C@H](COC(=O)NC2(C(F)(F)F)CC2)c2ccc(Cl)c(C#N)c2)C1=O` [Compound 71], the EC50 worked out at 0.324 µM.

As to `CC(C)(C)C[C@]1(c2ccc(-c3cnn(C(F)F)c3)cc2)NC(=N)N([C@H](COC(=O)N2CC(C)(C)C2)c2ccc(Cl)c(-c3ncn[nH]3)c2)C1=O` [Compound 75], the EC50 turned out to be 0.0305 µM.

With `CC(C)(C)C[C@]1(c2ccc(-c3cnn(C(F)F)c3)cc2)NC(=N)N([C@H](COC(=O)N2CC(C)(F)C2)c2ccc(Cl)c(-c3ncn[nH]3)c2)C1=O` [Compound 76], the EC50 is 0.0348 µM.

Take `CC(C)(C)C[C@]1(c2ccc(-c3cnn(C4CC4)c3)cc2)NC(=N)N([C@H](COC(=O)N2CC(F)(F)C2)c2ccc(Cl)c(-c3ncn[nH]3)c2)C1=O` [Compound 77]: the EC50 was 0.0389 µM.

For the molecule `CC(C)(C)C[C@]1(c2ccc(-c3cnn(C4CC4)c3)cc2)NC(=N)N([C@H](COC(=O)NC(C)(C)C(F)F)c2ccc(Cl)c(-c3ncn[nH]3)c2)C1=O` [Compound 79], the EC50 was determined as 0.0645 µM.

Regarding `CC(C)(C)C[C@]1(c2ccc(-c3cnn(C(F)F)c3)cc2)NC(=N)N([C@H](COC(=O)N(CC(F)F)C2CC2)c2ccc(Cl)c(-c3ncn[nH]3)c2)C1=O` [Compound 80], the concentration giving a half-maximal response (EC50) stood at 0.0288 µM.

Turning to `CN(C)C(=O)OC[C@H](c1ccc(Cl)c(-c2ncn[nH]2)c1)N1C(=N)N[C@](CC(C)(C)C)(c2ccc(-c3cnn(C(F)F)c3)cc2)C1=O` [Compound 81], the EC50 was found to be 0.0316 µM.

As for `CC(C)(C)C[C@]1(c2ccc(-c3cnn(C(F)F)c3)cc2)NC(=N)N([C@H](COC(=O)N2CC3(COC3)C2)c2ccc(Cl)c(-c3ncn[nH]3)c2)C1=O` [Compound 82], the EC50 was 0.18 µM.

As to `CC(C)(C)C[C@]1(c2ccc(-c3cnn(C(F)F)c3)cc2)NC(=N)N([C@H](COC(=O)N2CC(C(F)(F)F)C2)c2ccc(Cl)c(-c3ncn[nH]3)c2)C1=O` [Compound 83], the EC50 worked out at 0.0334 µM.

As to `CC(C)(C)C[C@]1(c2ccc(-c3cnn(C(F)F)c3)cc2)NC(=N)N([C@H](COC(=O)N2CC(S(C)(=O)=O)C2)c2ccc(Cl)c(-c3ncn[nH]3)c2)C1=O` [Compound 84], the EC50 amounted to 1.05 µM.

Turning to `CC(C)(C)C[C@]1(c2ccc(-c3cnn(C(F)F)c3)cc2)NC(=N)N([C@H](COC(=O)N2CC(C)(C#N)C2)c2ccc(Cl)c(-c3ncn[nH]3)c2)C1=O` [Compound 85], the EC50 was 0.112 µM.

Turning to `CC(C)(C)C[C@]1(c2ccc(-c3cnn(C(F)F)c3)cc2)NC(=N)N([C@H](COC(=O)N2CCC2)c2ccc(Cl)c(-c3ncn[nH]3)c2)C1=O` [Compound 86], the EC50 was 0.0354 µM.

Turning to `CC(C)(C)C[C@]1(c2ccc(-c3cnn(C(F)F)c3)cc2)NC(=N)N([C@H](COC(=O)N2CC3(CC3)C2)c2ccc(Cl)c(-c3ncn[nH]3)c2)C1=O` [Compound 87], the EC50 came to 0.0385 µM.

On to `CC1CCN1C(=O)OC[C@H](c1ccc(Cl)c(-c2ncn[nH]2)c1)N1C(=N)N[C@](CC(C)(C)C)(c2ccc(-c3cnn(C(F)F)c3)cc2)C1=O` (stereo partly drawn) [Compound 88], for which the EC50 was 0.0243 µM.

For `CC(C)(C)C[C@]1(c2ccc(-c3cnn(C(F)F)c3)cc2)NC(=N)N([C@H](COC(=O)N2CC3(CCO3)C2)c2ccc(Cl)c(-c3ncn[nH]3)c2)C1=O` [Compound 92], the EC50 was 0.113 µM.

With `CC(C)(C)C[C@]1(c2ccc(-c3cnn(C(F)F)c3)cc2)NC(=N)N([C@H](COC(=O)NC2(C(F)F)CC2)c2ccc(Cl)c(-c3ncn[nH]3)c2)C1=O` [Compound 93], the EC50 was found to be 0.105 µM.

With `CC(C)(C)C[C@]1(c2ccc(-c3cnn(C(F)F)c3)cc2)NC(=N)N([C@H](COC(=O)NC2COC2)c2ccc(Cl)c(-c3ncn[nH]3)c2)C1=O` [Compound 94], the EC50 amounted to 0.341 µM.

Regarding `CC(C)(C)C[C@]1(c2ccc(-c3cnn(C(F)F)c3)cc2)NC(=N)N([C@H](COC(=O)N(CC(F)(F)F)C2CC2)c2ccc(Cl)c(-c3ncn[nH]3)c2)C1=O` [Compound 95], the EC50 was found to be 0.0304 µM.

For `[2H]C([2H])([2H])n1cnc(-c2cc([C@@H](COC(=O)NC(C)(C)C(F)F)N3C(=N)N[C@](C[C@@]4(C)CC4(F)F)(c4ccc(-c5cnn(C(F)F)c5)cc4)C3=O)ccc2Cl)n1` [Compound 96], the EC50 stood at 0.0837 µM.

Turning to `[2H]C([2H])([2H])n1cnc(-c2cc([C@@H](COC(=O)NC(C)(C)C(F)F)N3C(=N)N[C@](CC4(C)CC4)(c4ccc(-c5cnn(C(F)F)c5)cc4)C3=O)ccc2Cl)n1` [Compound 98], the EC50 turned out to be 0.052 µM.

On to `CC(C)(C)C[C@]1(c2ccc(-c3cnn(C(F)F)c3)cc2)NC(=N)N([C@H](COC(=O)N2CC(C(F)F)C2)c2ccc(Cl)c(-c3ncn[nH]3)c2)C1=O` [Compound 99], for which the EC50 is 0.0657 µM.

Consider `CC(C)(F)C[C@]1(c2ccc(-c3cnn(C(F)F)c3)cc2)NC(=N)N([C@H](COC(=O)N2CC(F)(F)C2)c2ccc(Cl)c(-c3ncn[nH]3)c2)C1=O` [Compound 101], for which the EC50 was 0.0659 µM.

For the molecule `CC(C)(C)C[C@]1(c2ccc(-c3cnn(C(F)F)c3)cc2)NC(=N)N([C@H](COC(=O)NC(C)(CO)CO)c2ccc(Cl)c(-c3ncn[nH]3)c2)C1=O` [Compound 102], the concentration giving a half-maximal response (EC50) came to 0.196 µM.

Take `CC(C)(C)C[C@]1(c2ccc(-c3ncccn3)cc2)NC(=N)N([C@H](COC(=O)N2CC(F)(F)C2)c2ccc(Cl)c(-c3ncn[nH]3)c2)C1=O` [Compound 104]: the EC50 worked out at 0.0335 µM.

For `CC(C)(C)C[C@]1(c2ccc(-c3cnn(C4COC4)c3)cc2)NC(=N)N([C@H](COC(=O)NC(C)(C)C)c2ccc(Cl)c(-c3ncn[nH]3)c2)C1=O` [Compound 106], the EC50 worked out at 0.101 µM.

Turning to `CC(C)(C)C[C@]1(c2ccc(-c3cnn(C(F)F)c3)cc2)NC(=N)N([C@H](COC(=O)Nc2ccccc2)c2ccc(Cl)c(-c3ncn[nH]3)c2)C1=O` [Compound 107], the EC50 worked out at 0.0491 µM.

On to `CC(C)(C)C[C@]1(c2ccc(-c3cnn(C(F)F)c3)cc2)NC(=N)N([C@H](COC(=O)Nc2ccccn2)c2ccc(Cl)c(-c3ncn[nH]3)c2)C1=O` [Compound 108], for which the EC50 was determined as 0.0858 µM.

As to `CC(C)(C)C[C@]1(c2ccc(-c3cnn(C(F)F)c3)cc2F)NC(=N)N([C@H](COC(=O)N2CC(F)(F)C2)c2ccc(Cl)c(-c3ncn[nH]3)c2)C1=O` [Compound 111], the EC50 amounted to 0.0404 µM.

For orientation: EC50 means the midpoint of the concentration-response curve.
